Values after ≈ are worked out from the molar mass of the structure shown.
Key:
Staphylococcus aureus [1] = experiment: Antibacterial activity against Staphylococcus aureus measured after 18 hrs by agar dilution method; format: functional
Bacillus subtilis [2] = experiment: Antibacterial activity against Bacillus subtilis measured after 18 hrs by agar dilution method; format: functional
Escherichia coli [3] = experiment: Antibacterial activity against Escherichia coli measured after 18 hrs by agar dilution method; format: functional
Pseudomonas aeruginosa [4] = experiment: Antibacterial activity against Pseudomonas aeruginosa measured after 18 hrs by agar dilution method; format: functional
Candida albicans [5] = experiment: Antifungal activity against Candida albicans measured after 18 hrs by agar dilution method; format: functional
Salmonella typhi = experiment: Antibacterial activity against Salmonella typhi MTCC 98 assessed as zone of inhibition at 25 to 150 ug/ml measured after 24 hrs by agar well diffusion method; format: functional, Salmonella enterica subsp. enterica serovar Typhi
Escherichia coli [6] = experiment: Antibacterial activity against Escherichia coli MTCC 443 assessed as zone of inhibition at 25 to 150 ug/ml measured after 24 hrs by agar well diffusion method; format: functional
Bacillus subtilis [7] = experiment: Antibacterial activity against Bacillus subtilis MTCC 441 assessed as zone of inhibition at 25 to 150 ug/ml measured after 24 hrs by agar well diffusion method; format: functional
Staphylococcus aureus [8] = experiment: Antibacterial activity against Staphylococcus aureus MTCC 96 assessed as zone of inhibition at 25 to 150 ug/ml measured after 24 hrs by agar well diffusion method; format: functional
Aspergillus niger = experiment: Antifungal activity against Aspergillus niger assessed as zone of inhibition at 25 to 150 ug/ml measured after 24 to 48 hrs by agar well diffusion method; format: functional
Candida albicans [9] = experiment: Antifungal activity against Candida albicans MTCC 227 assessed as zone of inhibition at 25 to 150 ug/ml measured after 24 to 48 hrs by agar well diffusion method; format: functional
Penicillium chrysogenum = experiment: Antifungal activity against Penicillium chrysogenum MTCC 160 assessed as zone of inhibition at 25 to 150 ug/ml measured after 24 to 48 hrs by agar well diffusion method; format: functional
Staphylococcus aureus [10] = experiment: Antibacterial activity against Staphylococcus aureus NCTC 7447 assessed as zone of inhibition at 1 mg/ml measured after 24 hrs by agar diffusion method; format: functional; settings: NCTC 7447, 24 h, read-out: IZ
Bacillus subtilis [11] = experiment: Antibacterial activity against Bacillus subtilis NCTC 10400 assessed as zone of inhibition at 1 mg/ml measured after 24 hrs by agar diffusion method; format: functional; settings: NCTC 10400, 24 h, read-out: IZ
Sarcina = experiment: Antibacterial activity against Sarcina sp. NCTC 1117 assessed as zone of inhibition at 1 mg/ml measured after 24 hrs by agar diffusion method; format: functional; settings: NCTC 1117, 24 h, read-out: IZ
Escherichia coli [12] = experiment: Antibacterial activity against Escherichia coli NCTC 10416 assessed as zone of inhibition at 1 mg/ml measured after 24 hrs by agar diffusion method; format: functional; settings: NCTC 10416, 24 h, read-out: IZ
Serratia marcescens = experiment: Antibacterial activity against Serratia marcescens IMRU 70 assessed as zone of inhibition at 1 mg/ml measured after 24 hrs by agar diffusion method; format: functional; settings: IMRU 70, 24 h, read-out: IZ
Staphylococcus aureus [13] = experiment: Antibacterial activity against Staphylococcus aureus RCMB 000108 assessed as zone of inhibition at 30 ug/ml; format: functional; settings: read-out: IZ
Bacillus subtilis [14] = experiment: Antibacterial activity against Bacillus subtilis RCMB 000109 assessed as zone of inhibition at 30 ug/ml; format: functional; settings: read-out: IZ
Pseudomonas aeruginosa [15] = experiment: Antibacterial activity against Pseudomonas aeruginosa RCMB 000103 assessed as zone of inhibition at 30 ug/ml; format: functional; settings: read-out: IZ
Escherichia coli [16] = experiment: Antibacterial activity against Escherichia coli RCMB 000106 assessed as zone of inhibition at 30 ug/ml; format: functional; settings: read-out: IZ
Aspergillus fumigatus = experiment: Antifungal activity against Aspergillus fumigatus RCMB 002006 assessed as zone of inhibition at 30 ug/ml; format: functional; settings: read-out: IZ
Geotrichum candidum = experiment: Antifungal activity against Geotrichum candidum 052008 assessed as zone of inhibition at 30 ug/ml; format: functional; settings: read-out: IZ
[17] = tested on: Syncephalastrum racemosum; experiment: Antifungal activity against Syncephalastrum racemosum 005004 assessed as zone of inhibition at 30 ug/ml; format: functional; settings: read-out: IZ
Candida albicans [18] = experiment: Antifungal activity against Candida albicans RCMB 0005003 assessed as zone of inhibition at 30 ug/ml; format: functional; settings: read-out: IZ
Translocator protein [19] = target: T1, Translocator protein (Rattus norvegicus, UniProt P16257); experiment: Displacement of [3H]PK11195 from PBZR in rat kidney mitochondrial membranes measured after 90 mins by liquid scintillation counting; format: cell membranes
T1 sequence (P16257 whole entry, looked up): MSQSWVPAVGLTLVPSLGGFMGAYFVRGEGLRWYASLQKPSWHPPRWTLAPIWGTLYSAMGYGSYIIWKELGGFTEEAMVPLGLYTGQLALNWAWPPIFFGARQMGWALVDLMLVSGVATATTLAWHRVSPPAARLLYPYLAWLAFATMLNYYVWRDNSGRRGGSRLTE

Translocator protein [20] = target: T1, Translocator protein; experiment: Displacement of [3H]Ro5-4864 from PBZR in rat kidney mitochondrial membranes measured after 90 mins by liquid scintillation counting; format: cell membranes
[21] = tested on: Trichophyton mentagrophytes; experiment: Anti-fungal activity against Trichophyton mentagrophytes measured after 48 hrs by broth dilution method; format: functional
Tritrichomonas foetus = experiment: Anti-parasitic activity against Tritrichomonas foetus measured after 48 hrs by microscopic analysis; format: functional; settings: for MIC: Tritrichomonas foetus, 48 h
Aspergillus flavus = experiment: Antifungal activity against Aspergillus flavus MTCC 3008 assessed as zone of inhibition at 25 to 150 ug/ml measured after 24 to 48 hrs by agar well diffusion method; format: functional

Compound: Cc1nc(-c2ccccc2)sc1-c1ccn2nc(C)c(-c3ccccc3)c2n1
- MIC (Staphylococcus aureus [1]): ≥ 800 µg/mL
- MIC (Bacillus subtilis [2]): ≥ 400 µg/mL
- MIC (Escherichia coli [3]): ≥ 400 µg/mL
- MIC (Pseudomonas aeruginosa [4]): ≥ 800 µg/mL
- MIC (Candida albicans [5]): ≥ 400 µg/mL

Compound: Cc1nn(-c2ccccc2)c(Cl)c1-c1cc(-c2cc(Cl)ccc2O)nc2c(/N=N/c3ccc(Cl)cc3)c(N)nn12
- inhibition zone (IZ) (Salmonella typhi): 15 mm
- inhibition zone (IZ) (Escherichia coli [6]): 18 mm
- inhibition zone (IZ) (Bacillus subtilis [7]): 12 mm
- inhibition zone (IZ) (Staphylococcus aureus [8]): 15 mm
- inhibition zone (IZ) (Aspergillus niger): 20 mm
- inhibition zone (IZ) (Candida albicans [9]): 11 mm
- inhibition zone (IZ) (Penicillium chrysogenum): 13 mm

Compound: COc1ccccc1NS(=O)(=O)c1ccc(/N=N/c2c(=O)[nH]n3c(-c4ncccn4)c(C#N)c(N)nc23)cc1
- zone of inhibition at 1000 µg/mL (Staphylococcus aureus [10]): 15 to 18 mm
- zone of inhibition at 1000 µg/mL (Bacillus subtilis [11]): 15 to 18 mm
- zone of inhibition at 1000 µg/mL (Sarcina): 12 to 14 mm
- zone of inhibition at 1000 µg/mL (Escherichia coli [12]): 12 to 14 mm
- zone of inhibition at 1000 µg/mL (Serratia marcescens): 12 to 14 mm

Compound: OC(Cn1cncn1)(Cn1cncn1)c1ccc(F)cc1F [FLUCONAZOLE]
- MIC (Staphylococcus aureus [1]): ≥ 800 µg/mL
- MIC (Bacillus subtilis [2]): ≥ 800 µg/mL
- MIC (Escherichia coli [3]): ≥ 800 µg/mL
- MIC (Pseudomonas aeruginosa [4]): ≥ 800 µg/mL
- MIC (Candida albicans [5]): ≤ 25 µg/mL

Compound: O=C(O)c1cn(C2CC2)c2cc(N3CCNCC3)c(F)cc2c1=O [CIPROFLOXACIN]
- MIC (Staphylococcus aureus [1]): ≤ 25 µg/mL
- MIC (Bacillus subtilis [2]): ≤ 25 µg/mL
- MIC (Escherichia coli [3]): ≤ 25 µg/mL
- MIC (Pseudomonas aeruginosa [4]): 400 µg/mL (≈ 1210 µM)
- MIC (Candida albicans [5]): ≥ 800 µg/mL

Compound: Nc1nn2c(-c3cccs3)cc(-c3cccs3)nc2c1/N=N/c1ccccc1
- zone of inhibition at 30 µg/mL (Staphylococcus aureus [13]): 15.3 mm
- zone of inhibition at 30 µg/mL (Bacillus subtilis [14]): 17.9 mm
- zone of inhibition at 30 µg/mL (Pseudomonas aeruginosa [15]): 9.3 mm
- zone of inhibition at 30 µg/mL (Escherichia coli [16]): 14.9 mm
- zone of inhibition at 30 µg/mL (Aspergillus fumigatus): 15.2 mm
- zone of inhibition at 30 µg/mL (Geotrichum candidum): 11.3 mm
- zone of inhibition at 30 µg/mL [17]: 8.2 mm
- zone of inhibition at 30 µg/mL (Candida albicans [18]): 10 mm

Compound: CCC(CC)C(=O)Cc1c(-c2ccc(C)cc2)nn2c(C)cc(C)nc12
- Ki (Translocator protein [19]): 0.8 nM
- Ki (Translocator protein [20]): 1.7 nM

Compound: CCC(C)n1ncn(-c2ccc(N3CCN(c4ccc(OCC5COC(Cn6cncn6)(c6ccc(Cl)cc6Cl)O5)cc4)CC3)cc2)c1=O (centres undefined) [ITRACONAZOLE]
- zone of inhibition at 30 µg/mL (Aspergillus fumigatus): 27.4 mm
- zone of inhibition at 30 µg/mL (Geotrichum candidum): 24.2 mm
- zone of inhibition at 30 µg/mL [17]: 23.9 mm
- zone of inhibition at 30 µg/mL (Candida albicans [18]): 25.2 mm

Compound: CCC(CC)C(=O)Cc1c(-c2ccc(Cl)cc2)nn2c(C)cc(-c3ccccc3)nc12
- Ki (Translocator protein [19]): 3.4 nM
- Ki (Translocator protein [20]): 2.7 nM

Compound: CCCCCCCC/C=C\CCCCCCCCNc1cc(C)nc2c(Br)cnn12
- MLC [21]: 20 µM (≈ 9.55 µg/mL)
- MIC ([21]; Trichophyton mentagrophytes, 48 h): 10 µM (≈ 4.78 µg/mL)

Compound: Cc1ccc(/N=N/c2c(N)nn3c(-c4ccco4)cc(-c4ccco4)nc23)cc1
- zone of inhibition at 30 µg/mL (Staphylococcus aureus [13]): 22.2 mm
- zone of inhibition at 30 µg/mL (Bacillus subtilis [14]): 23.3 mm
- zone of inhibition at 30 µg/mL (Pseudomonas aeruginosa [15]): 18.5 mm
- zone of inhibition at 30 µg/mL (Escherichia coli [16]): 21.9 mm
- zone of inhibition at 30 µg/mL (Aspergillus fumigatus): 21.8 mm
- zone of inhibition at 30 µg/mL (Geotrichum candidum): 19.5 mm
- zone of inhibition at 30 µg/mL [17]: 14.8 mm
- zone of inhibition at 30 µg/mL (Candida albicans [18]): 18.1 mm

Compound: Cc1ncc([N+](=O)[O-])n1CCO [METRONIDAZOLE]
- MLC (Tritrichomonas foetus): 10 µg/mL (≈ 58.4 µM)
- MIC (Tritrichomonas foetus): 3.2 µg/mL (≈ 18.7 µM)

Compound: Cc1ccc(-c2cc(-c3c(C)nn(-c4ccccc4)c3Cl)n3nc(N)c(/N=N/c4ccc(Cl)cc4)c3n2)c(O)c1Br
- inhibition zone (IZ) (Salmonella typhi): 30 mm
- inhibition zone (IZ) (Escherichia coli [6]): 19 mm
- inhibition zone (IZ) (Staphylococcus aureus [8]): 10 mm
- inhibition zone (IZ) (Aspergillus niger): 14 mm
- inhibition zone (IZ) (Aspergillus flavus): 17 mm
- inhibition zone (IZ) (Candida albicans [9]): 15 mm
- inhibition zone (IZ) (Penicillium chrysogenum): 16 mm

Compound: COc1ccc(NS(=O)(=O)c2ccc(/N=N/c3c(=O)[nH]n4c(-c5nccc(C)n5)c(C#N)c(N)nc34)cc2)cc1
- zone of inhibition at 1000 µg/mL (Staphylococcus aureus [10]): 12 to 14 mm
- zone of inhibition at 1000 µg/mL (Bacillus subtilis [11]): 9 to 11 mm
- zone of inhibition at 1000 µg/mL (Sarcina): 15 to 18 mm
- zone of inhibition at 1000 µg/mL (Escherichia coli [12]): 12 to 14 mm
- zone of inhibition at 1000 µg/mL (Serratia marcescens): 15 to 18 mm

Compound: COc1ccccc1NS(=O)(=O)c1ccc(/N=N/c2c(=O)[nH]n3cc(C#N)c(N)nc23)cc1
- zone of inhibition at 1000 µg/mL (Staphylococcus aureus [10]): 9 to 11 mm
- zone of inhibition at 1000 µg/mL (Bacillus subtilis [11]): 15 to 18 mm
- zone of inhibition at 1000 µg/mL (Sarcina): 12 to 14 mm
- zone of inhibition at 1000 µg/mL (Escherichia coli [12]): 12 to 14 mm
- zone of inhibition at 1000 µg/mL (Serratia marcescens): 12 to 14 mm

Compound: CCOC(=O)c1cn(CC)c2c([N+](=O)[O-])cnn2c1=O
- MLC (Tritrichomonas foetus): 3.2 µg/mL (≈ 11.4 µM)
- MIC (Tritrichomonas foetus): 1 µg/mL (≈ 3.57 µM)

Reference: ChEMBL document CHEMBL3994587, “An insight on synthetic and medicinal aspects of pyrazolo[1,5-a]pyrimidine scaffold” (Eur J Med Chem, 2017)
